Test results published in the NIST ThermoML archive (doi:10.1016/j.jct.2014.05.016).

Test: xn = mol fraction of the nth substance listed
Settings: 100 kPa, Liquid; for viscosity: Concentric cylinders viscometry; for mass density: Vibrating tube method

C[n+]1ccn(CCO)c1.F[B-](F)(F)F [1-(2-hydroxyethyl)-3-methylimidazolium tetrafluoroborate] + CCCCn1cc[n+](C)c1.F[B-](F)(F)F
Settings	mass density [kg/m3]	viscosity [mPa·s]
293.15 K, x1 = 0.1003	–	141.5
293.15 K, x1 = 0.101	1217.5	–
293.15 K, x1 = 0.2001	–	138.1
293.15 K, x1 = 0.201	1230.9	–
293.15 K, x1 = 0.2997	–	139.6
293.15 K, x1 = 0.3002	1245.7	–
293.15 K, x1 = 0.3999	–	140.6
293.15 K, x1 = 0.4006	1261.4	–
293.15 K, x1 = 0.4996	–	138.7
293.15 K, x1 = 0.5009	1276.1	–
293.15 K, x1 = 0.5991	1292.3	143.1
293.15 K, x1 = 0.6997	–	144.7
293.15 K, x1 = 0.7001	1310.8	–
293.15 K, x1 = 0.7999	–	147.1
293.15 K, x1 = 0.8	1326.3	–
293.15 K, x1 = 0.8995	1344.4	–
293.15 K, x1 = 0.8998	–	152.3
293.15 K, x1 = 1	1362.4	153.6
298.15 K, x1 = 0.1003	–	107.8
298.15 K, x1 = 0.101	1214	–
298.15 K, x1 = 0.2001	–	105.3
298.15 K, x1 = 0.201	1227.4	–
298.15 K, x1 = 0.2997	–	106.6
298.15 K, x1 = 0.3002	1242	–
298.15 K, x1 = 0.3999	–	107.4
298.15 K, x1 = 0.4006	1257.9	–
298.15 K, x1 = 0.4996	–	105.4
298.15 K, x1 = 0.5009	1272.5	–
298.15 K, x1 = 0.5991	1288.6	108.3
298.15 K, x1 = 0.6997	–	109.3
298.15 K, x1 = 0.7001	1307.6	–
298.15 K, x1 = 0.7999	–	111.4
298.15 K, x1 = 0.8	1322.5	–
298.15 K, x1 = 0.8995	1340.6	–
298.15 K, x1 = 0.8998	–	114.1
298.15 K, x1 = 1	1358.7	115.1
303.15 K, x1 = 0.1003	–	83.64
303.15 K, x1 = 0.101	1210.4	–
303.15 K, x1 = 0.2001	–	81.83
303.15 K, x1 = 0.201	1223.9	–
303.15 K, x1 = 0.2997	–	82.64
303.15 K, x1 = 0.3002	1238.5	–
303.15 K, x1 = 0.3999	–	83.2
303.15 K, x1 = 0.4006	1254.3	–
303.15 K, x1 = 0.4996	–	81.76
303.15 K, x1 = 0.5009	1268.9	–
303.15 K, x1 = 0.5991	1284.9	83.78
303.15 K, x1 = 0.6997	–	84.42
303.15 K, x1 = 0.7001	1304.2	–
303.15 K, x1 = 0.7999	–	85.38
303.15 K, x1 = 0.8	1318.9	–
303.15 K, x1 = 0.8995	1336.9	–
303.15 K, x1 = 0.8998	–	87.51
303.15 K, x1 = 1	1354.8	87.98
308.15 K, x1 = 0.1003	–	66.1
308.15 K, x1 = 0.101	1206.9	–
308.15 K, x1 = 0.2001	–	64.77
308.15 K, x1 = 0.201	1220.5	–
308.15 K, x1 = 0.2997	–	65.41
308.15 K, x1 = 0.3002	1234.9	–
308.15 K, x1 = 0.3999	–	65.73
308.15 K, x1 = 0.4006	1250.7	–
308.15 K, x1 = 0.4996	–	64.71
308.15 K, x1 = 0.5009	1265.2	–
308.15 K, x1 = 0.5991	1281.3	66.04
308.15 K, x1 = 0.6997	–	66.38
308.15 K, x1 = 0.7001	1300.8	–
308.15 K, x1 = 0.7999	–	67.14
308.15 K, x1 = 0.8	1315.2	–
308.15 K, x1 = 0.8995	1333.1	–
308.15 K, x1 = 0.8998	–	68.51
308.15 K, x1 = 1	1351.2	68.59
313.15 K, x1 = 0.1003	–	53.11
313.15 K, x1 = 0.101	1203.3	–
313.15 K, x1 = 0.2001	–	52.17
313.15 K, x1 = 0.201	1216.9	–
313.15 K, x1 = 0.2997	–	52.58
313.15 K, x1 = 0.3002	1231.3	–
313.15 K, x1 = 0.3999	–	52.83
313.15 K, x1 = 0.4006	1247.1	–
313.15 K, x1 = 0.4996	–	51.96
313.15 K, x1 = 0.5009	1261.6	–
313.15 K, x1 = 0.5991	1277.7	52.99
313.15 K, x1 = 0.6997	–	53.19
313.15 K, x1 = 0.7001	1297.3	–
313.15 K, x1 = 0.7999	–	53.69
313.15 K, x1 = 0.8	1311.5	–
313.15 K, x1 = 0.8995	1329.4	–
313.15 K, x1 = 0.8998	–	54.68
313.15 K, x1 = 1	1347.4	54.81
318.15 K, x1 = 0.1003	–	43.44
318.15 K, x1 = 0.2001	–	42.58
318.15 K, x1 = 0.2997	–	42.92
318.15 K, x1 = 0.3999	–	43.11
318.15 K, x1 = 0.4996	–	42.41
318.15 K, x1 = 0.5991	–	43.22
318.15 K, x1 = 0.6997	–	43.31
318.15 K, x1 = 0.7999	–	43.66
318.15 K, x1 = 0.8998	–	44.39
318.15 K, x1 = 1	–	44.44
